{
  "source": "paper PMC9894685",
  "about": "“Abscisic acid agonists suitable for optimizing plant water use” (Frontiers in Plant Science, 2023)",
  "key": {"[1]": {"tested_on": "RCAR11-ABI2", "assay": "Yeast ABA signal pathway LUC reporter, RCAR11-ABI2", "type": "cell-based, Arabidopsis thaliana", "method": "(§1) The yeast cultivation and the life luciferase assay were performed as described ([Ruschhaupt et al., 2019]). Briefly, the reporter yeast expressing an ABA-dependent luciferase gene (LUC) was transformed with different combinations of ABA signaling components as indicated. Golden gate cloning ([Binder et al., 2014]) was used to construct pYEAST_LII_5‐6_CEN_URA vector with TDH3 promoter and TDH1 terminator (tTDH1), pYEAST_LII_1‐2_CEN_LEU vector with GK1 promoter and tTDH1, and pYEAST_LII_3‐4_CEN_TRP with the GAL1 promoter (pGAL1) and tTDH1 to express RCARs, PP2Cs, and OST1 (SnRK2.6), respectively ([Ruschhaupt et al., 2019]). The expression of ABF2 in yeast relies on a modified pGREG503 vector, in which pGAL1 ([Jansen et al., 2005]) was replaced by the ADH1 promoter.\n(§2) Colonies of freshly transformed cells were inoculated in 0.5 mL supplemented synthetic dextrose (SD) medium and incubated at 30°C in a gyratory shaker (Thermoshake-THO500, Gerhardt, Königswinter, Germany) at 200 rpm for 16-18 h. After overnight growth, the cells were harvested and washed in SD medium followed by inoculation in SD medium containing 2% galactose for induction of SnRK2 kinases under the control of the GAL1 promoter and supplementation with ligands at indicated concentrations, to an OD600 of 0.2 in flat-bottom 96-well plates (CytoOne, Starlab, Hamburg, Germany). Yeast cultures were incubated at 30°C and 200 rpm for 16-18 h before determination of LUC activity and cell density. Light emission of yeasts was detected in a HIDEX plate luminometer (HIDEX, Turku, Finland) after injection of 100 µL freshly prepared luciferin substrate (1 mM D-luciferin, Promega) provided in 100 mM citric acid, pH 3 ([Leskinen et al., 2003]) for 5 s and was corrected for background. The LUC activity was normalized to the cell density (OD600) measured in 96-well flat plates (Sarstedt, Nümbrecht, Germany). LUC activity is given as the ratio of light emission to OD600 in counts per second."}, "[2]": {"tested_on": "RCAR1/PYL9-ABI2", "assay": "Yeast ABA signal pathway LUC reporter, RCAR1-ABI2", "type": "cell-based, Arabidopsis thaliana", "method": "as §1, with “The expression of ABF2 in yeast relies on a modified pGREG503 vector, in which pGAL1 ([Jansen et al., 2005]) was replaced by the ADH1 promoter.” left out\nColonies of freshly transformed cells were inoculated in 0.5 mL supplemented synthetic dextrose (SD) medium and incubated at 30°C in a gyratory shaker (Thermoshake-THO500, Gerhardt, Königswinter, Germany) at 200 rpm for 16-18 h. […] Light emission of yeasts was detected in a HIDEX plate luminometer (HIDEX, Turku, Finland) after injection of 100 µL freshly prepared luciferin substrate (1 mM D-luciferin, Promega) provided in 100 mM citric acid, pH 3 ([Leskinen et al., 2003]) for 5 s and was corrected for background. The LUC activity was normalized to the cell density (OD600) measured in 96-well flat plates (Sarstedt, Nümbrecht, Germany). […]"}, "[3]": {"tested_on": "T1, RCAR8/PYL5-ABI2", "T1 construct": "expressed in transfected cells; host or cells: yeast (LUC reporter strain)", "assay": "Yeast ABA signal pathway LUC reporter, RCAR8-ABI2", "type": "cell-based, Arabidopsis thaliana", "method": "as §1, §2"}, "[4]": {"tested_on": "T2, RCAR11-ABI2", "T2 construct": "6xHis (N); made in house; host or cells: Escherichia coli BL21", "assay": "In vitro phosphatase assay, ABI2 with RCAR11", "type": "biochemical, Arabidopsis thaliana", "conditions": "100 nM ABI2, 200 nM RCAR11", "method": "(§3) Expression, purification, and analysis of RCAR and PP2C proteins were performed essentially as described ([Ruschhaupt et al., 2019]). Briefly, the ABA receptors RCAR1, RACR8, and RCAR11 were expressed with an aminoterminal histidine tag using the pSEVA431_LII_6xHIS::RCAR1/RCAR8/RCAR11. ABA coreceptors were expressed as histidine-tagged fusions with the maltose-binding protein using the pSEVA431_LII_6xHIS::MBP::ABI2/HAB1. All constructs were transformed and expressed in Escherichia coli strain BL21 and purified to homogeneity according to supplier’s instruction (GE Healthcare, Chicago, USA). The receptor assay was performed with 100 nM PP2C and a two-fold molar excess of RCAR. Values are means ± SD of three replicates. […] The maximum inhibition was set to 100% in the figures. The phosphatase activity was measured using 4-methylumbelliferyl-phosphate as a substrate ([Meinhard and Grill, 2001]). The increase in fluorescence was recorded over 25 min with excitation and emission wavelengths at 360 and 460 nm, respectively, using a Synergy 2 plate reader (Bio-Tec, Winooski, USA)."}, "[5]": {"target": "T3, RCAR1-ABI2 (Arabidopsis thaliana, UniProt O04719+Q84MC7)", "T3 construct": "6xHis (N); made in house; host or cells: Escherichia coli BL21", "T3 sequence (Q84MC7 1-187)": "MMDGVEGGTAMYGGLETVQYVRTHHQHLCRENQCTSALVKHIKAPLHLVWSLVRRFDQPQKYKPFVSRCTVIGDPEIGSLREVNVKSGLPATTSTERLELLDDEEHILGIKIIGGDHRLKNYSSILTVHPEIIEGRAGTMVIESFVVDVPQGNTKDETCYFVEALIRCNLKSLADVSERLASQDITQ", "T3 sequence (O04719 1-423)": "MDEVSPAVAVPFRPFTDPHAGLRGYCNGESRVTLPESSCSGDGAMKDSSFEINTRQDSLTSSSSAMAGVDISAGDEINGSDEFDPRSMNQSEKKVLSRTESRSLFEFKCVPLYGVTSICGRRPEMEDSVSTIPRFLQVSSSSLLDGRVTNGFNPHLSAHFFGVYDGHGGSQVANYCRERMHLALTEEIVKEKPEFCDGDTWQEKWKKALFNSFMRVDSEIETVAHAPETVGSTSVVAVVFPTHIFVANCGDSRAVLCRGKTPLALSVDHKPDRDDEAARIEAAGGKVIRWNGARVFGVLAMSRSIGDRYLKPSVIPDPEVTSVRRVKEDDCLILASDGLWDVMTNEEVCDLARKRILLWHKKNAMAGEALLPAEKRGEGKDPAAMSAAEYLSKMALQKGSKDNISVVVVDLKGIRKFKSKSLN", "assay": "In vitro phosphatase assay, ABI2 with RCAR1", "type": "biochemical", "conditions": "for Statistical significance of RCAR1-mediated inhibition of ABI2 phosphatase activity vs ABA: Fig. 3B", "method": "as §3"}, "[6]": {"target": "RCAR8-ABI2", "assay": "In vitro phosphatase assay, ABI2 with RCAR8", "type": "biochemical, Arabidopsis thaliana", "conditions": "100 nM ABI2, 200 nM RCAR8", "method": "as §3"}, "[7]": {"tested_on": "Arabidopsis plants", "assay": "Foliar administration and thermal imaging of leaf temperature (transpiration), Arabidopsis", "type": "in vivo, Arabidopsis thaliana", "method": "(§4) Thermal imaging was carried out as described ([Yang et al., 2016]). An assessment of the efficacy of ABA and CCPs was conducted by using 35-day-old Arabidopsis and 30-day-old wheat plants. Stock solutions (10 mM) of CCPs and ABA dissolved in dimethyl sulfoxide (DMSO) were diluted to the respective ligand concentrations (10, 30, 100 µM) in water containing 0.01% (v/v) Tween 20. Aqueous Tween 20 solutions supplemented with 0.1%, 0.3%, and 1% DMSO served for mock treatments. The solutions were sprayed onto the leaf surface until the run-off of droplets. One day after application (unless otherwise indicated), thermal imaging was conducted using the InfraTec instrument (IR-TCM 384, InfraTec, Dresden, Germany). The leaf temperature of Arabidopsis was determined as the average temperature of all leaves. The leaf temperature of wheat was determined as described ([Yang et al., 2019])."}, "[8]": {"tested_on": "wheat plants", "assay": "Foliar administration and thermal imaging of leaf temperature, wheat", "type": "in vivo, Triticum aestivum", "conditions": "100 μM, 24 h after administration", "method": "as §4"}, "[9]": {"tested_on": "ABI1 with RCAR11/PYR1", "set-up": "method as in Frackenpohl et al., 2018", "conditions": "ref Frackenpohl et al., 2018; cited from earlier work"}},
  "data": [
    {"compound": "CC(=C/C(=O)O)/C=C/C(O)(C(C)C)C1(C#N)CC1", "note": "(stereo not shown) [CCP1, (2Z,4E)-6-(1-cyanocyclopropyl)-3-methyl-6-hydroxy-7-methylocta-2,4-dienoic acid]", "values": [
      {"measurement": "LUC reporter induction compared to mock-treated cells", "setting": "[1]; 30 µM exogenous ligand, 16 h exposure", "result": "approximately eightfold"},
      {"measurement": "Activation of the ABA response compared to ABA", "setting": "[1]; dose-dependent, 0.1-30 µM", "result": "comparable activity to ABA"},
      {"measurement": "Higher exogenous concentration required for reporter expression comparable to 1 µM ABA", "setting": "[2]", "result": "approximately 30 x"},
      {"measurement": "Reporter induction relative to ABA", "setting": "[3]; 1 µM exogenous ligand", "result": "approximately half the ABA induction"},
      {"measurement": "Higher level required for induction value comparable to 1 µM ABA", "setting": "[3]; yeast, RCAR8-ABI2", "result": "about 10 x"},
      {"measurement": "Inhibition of ABI2 compared to ABA", "setting": "[4]", "result": "comparable to ABA"},
      {"measurement": "Statistical significance of RCAR1-mediated inhibition of ABI2 phosphatase activity vs ABA", "setting": "[5]; 0.003 µM", "result": "ns (Otherwise, the difference is regarded as insignificant indicated as “ns”)"},
      {"measurement": "Statistical significance of RCAR1-mediated inhibition of ABI2 phosphatase activity vs ABA", "setting": "[5]; 0.01 µM", "result": "s (P < 0.05 (one-way ANOVA) is considered as a significant difference and expressed as “s”)"},
      {"measurement": "Statistical significance of RCAR1-mediated inhibition of ABI2 phosphatase activity vs ABA", "setting": "[5]; 0.03 µM", "result": "s (P < 0.05 (one-way ANOVA) is considered as a significant difference and expressed as “s”)"},
      {"measurement": "Statistical significance of RCAR1-mediated inhibition of ABI2 phosphatase activity vs ABA", "setting": "[5]; 0.1 µM", "result": "s (P < 0.05 (one-way ANOVA) is considered as a significant difference and expressed as “s”)"},
      {"measurement": "IC50 relative to ABA (fold higher)", "setting": "[5]; 100 nM ABI2 and 200 nM RCAR1", "result": "approximately 100 fold"},
      {"measurement": "Statistical significance of RCAR1-mediated inhibition of ABI2 phosphatase activity vs ABA", "setting": "[5]; 0.3 µM", "result": "s (P < 0.05 (one-way ANOVA) is considered as a significant difference and expressed as “s”)"},
      {"measurement": "Statistical significance of RCAR1-mediated inhibition of ABI2 phosphatase activity vs ABA", "setting": "[5]; 1 µM", "result": "s (P < 0.05 (one-way ANOVA) is considered as a significant difference and expressed as “s”)"},
      {"measurement": "Statistical significance of RCAR1-mediated inhibition of ABI2 phosphatase activity vs ABA", "setting": "[5]; 3 µM", "result": "s (P < 0.05 (one-way ANOVA) is considered as a significant difference and expressed as “s”)"},
      {"measurement": "Statistical significance of RCAR1-mediated inhibition of ABI2 phosphatase activity vs ABA", "setting": "[5]; 10 µM", "result": "s (P < 0.05 (one-way ANOVA) is considered as a significant difference and expressed as “s”)"},
      {"measurement": "Statistical significance of RCAR1-mediated inhibition of ABI2 phosphatase activity vs ABA", "setting": "[5]; 30 µM", "result": "s (P < 0.05 (one-way ANOVA) is considered as a significant difference and expressed as “s”)"},
      {"measurement": "Statistical significance of RCAR1-mediated inhibition of ABI2 phosphatase activity vs ABA", "setting": "[5]; 100 µM", "result": "s (P < 0.05 (one-way ANOVA) is considered as a significant difference and expressed as “s”)"},
      {"measurement": "IC50 relative to ABA (fold higher)", "setting": "[6]", "result": "around 10 fold"},
      {"measurement": "Potency in reducing transpiration compared to ABA", "setting": "[7]; 10 µM", "result": "more potent than 100 µM ABA"},
      {"measurement": "Higher leaf temperature", "setting": "[7]; 30 µM, nineteen days after administration", "result": 1.5, "unit": "°C"},
      {"measurement": "Duration of persistent response", "setting": "[7]; 10 and 30 µM ligand treatment", "result": 10, "unit": "days"},
      {"measurement": "Potency relative to ABA", "setting": "[7]; 10 and 30 µM ligand vs 100 µM ABA", "result": "more than tenfold"},
      {"measurement": "Duration of effect relative to ABA", "setting": "[7]; 10 and 30 µM ligand vs ABA", "result": "approximately three times"},
      {"measurement": "Efficiency in minimizing transpiration compared to ABA", "setting": "[7]; foliar application", "result": "by an order of magnitude more efficient than ABA"},
      {"measurement": "ABA concentration achieving a temperature increase similar to 10 µM of the CCP", "setting": "[7]; one day after application", "result": "about 100 µM"},
      {"measurement": "Activity and persistence of minimized transpiration compared to ABA", "setting": "[7]; single application 100 µM, recorded for 19 days", "result": "more active and persistent than ABA"},
      {"measurement": "Leaf temperature increase, activity compared to ABA", "setting": "[8]", "result": "higher activity than ABA"},
      {"measurement": "Activity in in vitro inhibition of ABI1 phosphatase activity", "setting": "[9]", "result": "ABA-like activity"}
    ]}
  ]
}
